Measurements as given in patent publication US11267859B2, “GM-CSF mimetics and methods of making and using same” (The Regents of the University of Colorado, a body corporate, priority 2017, dated 2022).

Columns and labels:
mouse receptor = target: T1, mouse receptor (Mus musculus, UniProt P26955+Q00941); experiment: Activity for the mouse GM-CSF receptor
T1 sequence (Q00941 30-388): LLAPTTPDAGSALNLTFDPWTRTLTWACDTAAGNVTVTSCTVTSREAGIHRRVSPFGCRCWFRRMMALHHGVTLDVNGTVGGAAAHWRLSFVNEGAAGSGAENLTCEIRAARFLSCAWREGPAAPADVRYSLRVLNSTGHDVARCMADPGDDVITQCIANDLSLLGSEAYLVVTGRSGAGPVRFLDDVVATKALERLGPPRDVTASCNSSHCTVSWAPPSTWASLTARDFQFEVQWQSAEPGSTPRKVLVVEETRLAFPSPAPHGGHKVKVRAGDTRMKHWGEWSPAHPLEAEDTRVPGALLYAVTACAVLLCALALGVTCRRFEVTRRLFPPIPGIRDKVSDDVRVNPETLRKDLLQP
T1 sequence (P26955 23-896): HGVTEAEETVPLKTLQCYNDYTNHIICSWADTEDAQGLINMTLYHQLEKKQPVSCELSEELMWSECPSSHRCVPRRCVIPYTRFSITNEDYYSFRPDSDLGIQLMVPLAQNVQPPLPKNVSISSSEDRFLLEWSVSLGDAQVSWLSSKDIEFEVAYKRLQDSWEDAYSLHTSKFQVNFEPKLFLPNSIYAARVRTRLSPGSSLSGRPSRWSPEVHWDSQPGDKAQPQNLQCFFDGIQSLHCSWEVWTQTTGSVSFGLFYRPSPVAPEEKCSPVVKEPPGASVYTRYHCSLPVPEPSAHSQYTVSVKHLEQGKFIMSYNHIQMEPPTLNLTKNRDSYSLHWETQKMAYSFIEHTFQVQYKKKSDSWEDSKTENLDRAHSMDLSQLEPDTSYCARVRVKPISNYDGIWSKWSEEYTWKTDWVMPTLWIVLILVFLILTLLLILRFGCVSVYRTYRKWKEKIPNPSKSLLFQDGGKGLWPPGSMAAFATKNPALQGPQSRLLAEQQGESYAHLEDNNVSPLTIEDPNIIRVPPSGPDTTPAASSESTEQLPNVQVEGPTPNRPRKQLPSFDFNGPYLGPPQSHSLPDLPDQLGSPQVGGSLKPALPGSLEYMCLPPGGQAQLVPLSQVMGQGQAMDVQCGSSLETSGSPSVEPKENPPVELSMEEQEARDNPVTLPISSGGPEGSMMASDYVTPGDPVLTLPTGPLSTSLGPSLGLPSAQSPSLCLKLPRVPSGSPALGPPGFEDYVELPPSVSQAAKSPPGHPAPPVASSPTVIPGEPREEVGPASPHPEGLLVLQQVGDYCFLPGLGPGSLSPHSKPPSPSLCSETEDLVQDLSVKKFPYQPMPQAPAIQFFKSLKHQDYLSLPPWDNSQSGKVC

human receptor = target: T2, human receptor (Homo sapiens, UniProt P15509+P32927); experiment: Activity for the human GM-CSF receptor
T2 sequence (P15509 23-400): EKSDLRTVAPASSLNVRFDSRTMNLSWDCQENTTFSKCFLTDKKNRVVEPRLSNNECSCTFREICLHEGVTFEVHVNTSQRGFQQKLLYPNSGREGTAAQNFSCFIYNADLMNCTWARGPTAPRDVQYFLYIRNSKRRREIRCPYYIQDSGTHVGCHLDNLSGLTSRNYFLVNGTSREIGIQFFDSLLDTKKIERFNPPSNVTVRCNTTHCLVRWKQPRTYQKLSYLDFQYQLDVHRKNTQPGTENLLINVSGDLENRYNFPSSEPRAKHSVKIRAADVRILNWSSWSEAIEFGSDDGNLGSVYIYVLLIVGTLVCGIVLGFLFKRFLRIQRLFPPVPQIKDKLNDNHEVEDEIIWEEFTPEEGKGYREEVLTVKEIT
T2 sequence (P32927 17-897): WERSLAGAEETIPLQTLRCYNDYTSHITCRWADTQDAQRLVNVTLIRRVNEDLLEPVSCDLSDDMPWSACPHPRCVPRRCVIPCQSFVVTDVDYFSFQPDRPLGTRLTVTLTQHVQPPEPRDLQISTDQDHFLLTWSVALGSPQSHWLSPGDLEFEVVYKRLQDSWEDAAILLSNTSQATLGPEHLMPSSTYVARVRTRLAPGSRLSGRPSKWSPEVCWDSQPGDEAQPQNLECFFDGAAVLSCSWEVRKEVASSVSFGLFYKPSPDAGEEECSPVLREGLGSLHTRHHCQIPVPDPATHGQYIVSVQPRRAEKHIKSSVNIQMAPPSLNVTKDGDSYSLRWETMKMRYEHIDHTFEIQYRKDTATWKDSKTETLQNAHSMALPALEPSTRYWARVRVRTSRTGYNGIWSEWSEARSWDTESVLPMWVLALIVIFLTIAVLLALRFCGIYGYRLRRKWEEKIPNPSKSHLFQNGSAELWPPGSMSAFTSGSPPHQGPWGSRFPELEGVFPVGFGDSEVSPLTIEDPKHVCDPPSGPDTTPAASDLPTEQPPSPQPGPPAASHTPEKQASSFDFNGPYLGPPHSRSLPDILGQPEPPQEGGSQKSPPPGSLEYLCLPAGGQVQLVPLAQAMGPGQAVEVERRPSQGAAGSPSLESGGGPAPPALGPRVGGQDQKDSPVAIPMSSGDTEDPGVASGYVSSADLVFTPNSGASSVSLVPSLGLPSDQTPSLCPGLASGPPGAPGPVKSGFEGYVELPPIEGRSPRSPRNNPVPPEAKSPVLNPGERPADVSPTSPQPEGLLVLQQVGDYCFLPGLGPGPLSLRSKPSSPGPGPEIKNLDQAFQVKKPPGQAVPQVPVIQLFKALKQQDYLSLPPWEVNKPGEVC

## QPWEHVNAIQEAR {PEG4} DFLLVIP {PEG4} QPWEHVNAIQEAR {PEG4} DFLLVIP [Mimetic M7]
Mouse receptor
  activity for the mouse receptor: has activity
Human receptor
  activity for the human receptor: does not have activity
